Assay results as given in article PMC7309225, “Synthesis, Biodistribution, and Radiation Dosimetry of a Novel mGluR5 Radioligand: ^18F-AZD9272” (ACS Chemical Neuroscience, 2020).

Test system: mGluR5
Assay: Brain PET in cynomolgus monkey (HRRT), VT by 2TC model and Logan GA
Assay type: in vivo
Description: Two male cynomolgus monkeys (NHP1: 5460 g and NHP2: 7080 g) were used in this study. […] Anesthesia was induced by intramuscular injection of ketamine hydrochloride (approximately 10 mg/kg) at AFL and maintained by intravenous infusion of ketamine (4 mg/kg/h) and xylazine (0.4 mg/kg/h) with a pump. The NHP head was immobilized with a fixation device. […] Heart rate, blood pressure, respiratory rate, and oxygen saturation were continuously monitored throughout the experiments. Fluid balance was maintained by continuous infusion of saline.
PET measurements were conducted using a High Resolution Research Tomograph (HRRT) PET scanner (Siemens Molecular Imaging, Knoxville, TN). […] List-mode data were reconstructed with a series of 34 frames (20 s × 9, 1 min × 3, 3 min × 5, and 6 min × 17), using the ordinary Poisson-3D-ordered subset expectation maximization (OP-3D-OSEM) algorithm with 10 iterations and 16 subsets including modeling of the point spread function (PSF).
An automated blood sampling system (ABSS) was used to measure the continuous radioactivity for the first 3 min after the radioligand injection. Then, blood sampling was performed manually for the measurement of metabolism and radioactivity at 5, 15, 30, 60, 90, and 120 min after the injection. A reversed-phase radio-HPLC method was used to determine the amount of unchanged ^18F-AZD9272 and its radioactive metabolites in NHP plasma.[35]
The regions of interest (ROIs) were delineated manually on the MRI images of each NHP for the anterior cingulate cortex, amygdala, caudate, cerebellum, hippocampus, insular cortex, occipital cortex, prefrontal cortex, putamen, temporal cortex, thalamus, ventral midbrain, and ventral striatum. The MRI of the individual NHP was co-registered to summed PET images of the whole measurement. By applying the co-registration parameters to ROIs, the time–activity curves of brain regions were generated from dynamic PET data.
As the main outcome measure, the total distribution volume (VT) defined as (K1/k2)(k3/k4 + 1) by the two tissue compartment (2TC) model and Logan graphical analysis (GA) was calculated with the metabolite corrected plasma radioactivity as the input function. […] The procedure has been described in detail in a previous publication on [^11C]AZD9272 binding.[33]

Q: How did the VT (ACC anterior cingulate cortex, 2TC, NHP1) turn out when `N#Cc1cc(F)cc(-c2nc(-c3ccc([18F])cn3)no2)c1` [^18F-AZD9272, 3-fluoro-5-(3-(5-[^18F]fluoropyridin-2-yl)-1,2,4-oxadiazol-5-yl)benzonitrile] was run?
A: 11.5 mL/cm^3

Q: What about the VT (ACC anterior cingulate cortex, 2TC, NHP2) of the same compound?
A: 11.2 mL/cm^3

Q: What about the VT (ACC anterior cingulate cortex, 2TC, mean) of the same compound?
A: 11.4 mL/cm^3

Q: What about the VT (ACC anterior cingulate cortex, GA, NHP1) of the same compound?
A: 10.2 mL/cm^3

Q: And the VT (ACC anterior cingulate cortex, GA, NHP2)?
A: 10.7 mL/cm^3

Q: What about the VT (ACC anterior cingulate cortex, GA, mean) of the same compound?
A: 10.4 mL/cm^3

Q: What about the VT (AMG amygdala, 2TC, NHP1) of the same compound?
A: 15.0 mL/cm^3

Q: And the VT (AMG amygdala, 2TC, NHP2)?
A: 14.4 mL/cm^3

Q: What about the VT (AMG amygdala, 2TC, mean) of the same compound?
A: 14.7 mL/cm^3

Q: What about the VT (AMG amygdala, GA, NHP1) of the same compound?
A: 12.8 mL/cm^3

Q: And the VT (AMG amygdala, GA, NHP2)?
A: 13.1 mL/cm^3

Q: And the VT (AMG amygdala, GA, mean)?
A: 13.0 mL/cm^3

Q: And the VT (CAU caudate, 2TC, NHP1)?
A: 13.3 mL/cm^3

Q: And the VT (CAU caudate, 2TC, NHP2)?
A: 13.7 mL/cm^3

Q: What about the VT (CAU caudate, 2TC, mean) of the same compound?
A: 13.5 mL/cm^3

Q: And the VT (CAU caudate, GA, NHP1)?
A: 12.1 mL/cm^3

Q: What about the VT (CAU caudate, GA, NHP2) of the same compound?
A: 13.0 mL/cm^3

Q: What about the VT (CAU caudate, GA, mean) of the same compound?
A: 12.6 mL/cm^3

Q: What about the VT (CER cerebellum, 2TC, NHP1) of the same compound?
A: 7.1 mL/cm^3

Q: And the VT (CER cerebellum, 2TC, NHP2)?
A: 7.9 mL/cm^3

Q: And the VT (CER cerebellum, 2TC, mean)?
A: 7.5 mL/cm^3

Q: And the VT (CER cerebellum, GA, NHP1)?
A: 6.6 mL/cm^3

Q: And the VT (CER cerebellum, GA, NHP2)?
A: 7.6 mL/cm^3

Q: And the VT (CER cerebellum, GA, mean)?
A: 7.1 mL/cm^3

Q: And the VT (HIP hippocampus, 2TC, NHP1)?
A: 10.7 mL/cm^3

Q: And the VT (HIP hippocampus, 2TC, NHP2)?
A: 11.9 mL/cm^3

Q: What about the VT (HIP hippocampus, 2TC, mean) of the same compound?
A: 11.3 mL/cm^3

Q: What about the VT (HIP hippocampus, GA, NHP1) of the same compound?
A: 9.7 mL/cm^3

Q: What about the VT (HIP hippocampus, GA, NHP2) of the same compound?
A: 11.2 mL/cm^3

Q: What about the VT (HIP hippocampus, GA, mean) of the same compound?
A: 10.5 mL/cm^3

Q: What about the VT (INS insular cortex, 2TC, NHP1) of the same compound?
A: 9.0 mL/cm^3

Q: What about the VT (INS insular cortex, 2TC, NHP2) of the same compound?
A: 10.0 mL/cm^3

Q: And the VT (INS insular cortex, 2TC, mean)?
A: 9.5 mL/cm^3

Q: What about the VT (INS insular cortex, GA, NHP1) of the same compound?
A: 8.5 mL/cm^3

Q: And the VT (INS insular cortex, GA, NHP2)?
A: 9.6 mL/cm^3

Q: What about the VT (INS insular cortex, GA, mean) of the same compound?
A: 9.1 mL/cm^3

Q: What about the “Regional brain uptake (PET)” value (NHP brain) of the same compound?
A: highest in the striatum, lower in the thalamus and frontal cortex, and lowest in the cerebellum and occipital cortex

Q: And the VT (OC occipital cortex, 2TC, NHP1)?
A: 5.4 mL/cm^3

Q: And the VT (OC occipital cortex, 2TC, NHP2)?
A: 6.0 mL/cm^3

Q: And the VT (OC occipital cortex, 2TC, mean)?
A: 5.7 mL/cm^3

Q: And the VT (OC occipital cortex, GA, NHP1)?
A: 5.5 mL/cm^3

Q: And the VT (OC occipital cortex, GA, NHP2)?
A: 5.7 mL/cm^3

Q: And the VT (OC occipital cortex, GA, mean)?
A: 5.6 mL/cm^3

Q: And the VT (PFC prefrontal cortex, 2TC, NHP1)?
A: 9.6 mL/cm^3

Q: What about the VT (PFC prefrontal cortex, 2TC, NHP2) of the same compound?
A: 9.5 mL/cm^3

Q: What about the VT (PFC prefrontal cortex, 2TC, mean) of the same compound?
A: 9.5 mL/cm^3

Q: What about the VT (PFC prefrontal cortex, GA, NHP1) of the same compound?
A: 8.9 mL/cm^3

Q: And the VT (PFC prefrontal cortex, GA, NHP2)?
A: 9.3 mL/cm^3

Q: What about the VT (PFC prefrontal cortex, GA, mean) of the same compound?
A: 9.1 mL/cm^3

Q: What about the VT (PUT putamen, 2TC, NHP1) of the same compound?
A: 9.5 mL/cm^3

Q: And the VT (PUT putamen, 2TC, NHP2)?
A: 10.7 mL/cm^3

Q: And the VT (PUT putamen, 2TC, mean)?
A: 10.1 mL/cm^3

Q: What about the VT (PUT putamen, GA, NHP1) of the same compound?
A: 9.3 mL/cm^3

Q: And the VT (PUT putamen, GA, NHP2)?
A: 10.1 mL/cm^3

Q: What about the VT (PUT putamen, GA, mean) of the same compound?
A: 9.7 mL/cm^3

Q: And the VT (TC temporal cortex, 2TC, NHP1)?
A: 7.6 mL/cm^3

Q: What about the VT (TC temporal cortex, 2TC, NHP2) of the same compound?
A: 8.4 mL/cm^3

Q: What about the VT (TC temporal cortex, 2TC, mean) of the same compound?
A: 8.0 mL/cm^3

Q: And the VT (TC temporal cortex, GA, NHP1)?
A: 7.2 mL/cm^3

Q: What about the VT (TC temporal cortex, GA, NHP2) of the same compound?
A: 8.1 mL/cm^3

Q: What about the VT (TC temporal cortex, GA, mean) of the same compound?
A: 7.7 mL/cm^3

Q: What about the VT (THA thalamus, 2TC, NHP1) of the same compound?
A: 11.7 mL/cm^3

Q: And the VT (THA thalamus, 2TC, NHP2)?
A: 11.4 mL/cm^3

Q: What about the VT (THA thalamus, 2TC, mean) of the same compound?
A: 11.6 mL/cm^3

Q: What about the VT (THA thalamus, GA, NHP1) of the same compound?
A: 10.6 mL/cm^3

Q: And the VT (THA thalamus, GA, NHP2)?
A: 10.8 mL/cm^3

Q: And the VT (THA thalamus, GA, mean)?
A: 10.7 mL/cm^3

Q: And the VT (VM ventral midbrain, 2TC, NHP1)?
A: 11.0 mL/cm^3

Q: What about the VT (VM ventral midbrain, 2TC, NHP2) of the same compound?
A: 8.9 mL/cm^3

Q: What about the VT (VM ventral midbrain, 2TC, mean) of the same compound?
A: 9.9 mL/cm^3

Q: And the VT (VM ventral midbrain, GA, NHP1)?
A: 9.1 mL/cm^3

Q: And the VT (VM ventral midbrain, GA, NHP2)?
A: 8.4 mL/cm^3

Q: And the VT (VM ventral midbrain, GA, mean)?
A: 8.8 mL/cm^3

Q: What about the VT (VST ventral striatum, 2TC, NHP1) of the same compound?
A: 17.3 mL/cm^3

Q: And the VT (VST ventral striatum, 2TC, NHP2)?
A: 17.3 mL/cm^3

Q: What about the VT (VST ventral striatum, 2TC, mean) of the same compound?
A: 17.3 mL/cm^3

Q: And the VT (VST ventral striatum, GA, NHP1)?
A: 14.5 mL/cm^3

Q: What about the VT (VST ventral striatum, GA, NHP2) of the same compound?
A: 15.6 mL/cm^3

Q: And the VT (VST ventral striatum, GA, mean)?
A: 15.1 mL/cm^3

Q: What about the “Maximum whole brain radioactivity concentration” value (two cynomolgus monkeys (n = 2), i.v.) of the same compound?
A: 4.9–6.7 % of the injected dose
